The values that follow come from patent publication US12152047B2, “Anti-cancer gold compounds” (Royal Melbourne Institute of Technology, priority 2019, dated 2024).

Like-named read-outs stand apart in the source and are kept apart here.

The subject of one data set is HT-29 colon cancer cells. The experiment in a line: Trypan blue assay, HT-29. In kind it is cell-based. The procedure: (§1) A Trypan blue assay was conducted to determine the cytotoxicity of certain compounds of the invention towards cisplatin-sensitive (A2780) and -resistant (A2780Cis) ovarian, prostate (PC3) and colon (HT-29) cancer cells.
(§2) In order to determine the toxicity of the compounds, 5×10^4 cells per well were seeded into 24 well plates and allowed to grow for 24 hours. The cells were then treated with increasing concentrations of the compounds for 72 hours. […] The gold complexes were dissolved in DMSO immediately prior to the experiments (5 mM stock solutions). 0.25% DMSO in complete medium served as vehicle control. All treatments were performed using molar concentrations and each well received 1 mL of treatment in cell culture media (RPMI) containing 10% FBS and 1% penicillin and streptomycin. After 72 hours of treatment, the media was collected from each well in separate tubes in order to include dead cells in the cell count. Cells from the plate were removed using 200 μL of 0.25% Trypsin-EDTA for 3 minutes at 37° C. Trypsin was neutralised with the media originally removed from the cells and centrifuged at 1200 rpm for 5 minutes. The supernatant was discarded and the cells were resuspended in 100 μL of fresh complete media. From this, 20 μL of cell suspension was removed, mixed with an equal volume of Trypan Blue and the cells were counted using a haemocytometer.

The subject of data set [1] is A2780Cis cisplatin resistant ovarian cancer cells. The experiment in a line: Trypan blue assay, A2780Cis. In kind it is cell-based. Here is the method: as §1, §2
The next data set relates to HeLa xenografts. The experiment in a line: In vivo anti-tumour activity in mice xenograft model. On the set-up: species or system BALB/c Nude mice. As to conditions: 1 mg/kg intraperitoneal, 42 days, nude mice bearing HeLa xenografts. Here is the method: The use of metal complexes or gold compounds in animal xenograft models has been previously described elsewhere for cervical cancer models or other tumour types. The efficacy of the newly synthesised novel gold compound in reducing tumour growth in cervical cancer models was tested as follows. […] Five-week-old female BALB/c Nude mice were used. HeLa tumour cells (5×10^6) resuspended in RPMI medium injected subcutaneously tumour cells in 100 μL of culture media using a 29-gauge insulin syringe into both ventral flanks, anterior to the hind leg. The mice were monitored twice daily for 48 hrs to determine if any unexpected adverse effects are observed. Tumours were allowed to establish to approximately 50 mm^3 (as determined using electronic callipers) and the mice were then randomly separated into three groups of 5.
From this stock solution, the final working concentrations for mice injections were prepared in PBS (Phosphate buffered saline, pH 7.4) with DMSO concentration not exceeding 3.6%.
Tumour volumes were measured 8 times during the 42-day period. All mice were culled after 42 days and the tumours were collected and weighed. All the animal experiments were performed in Biological Research Facility, Melbourne University according to the animal ethics number 1814422.

The subject of data set [2] is A2780 ovarian cancer cells. The experiment in a line: Trypan blue assay, A2780. In kind it is cell-based. The procedure: as §1, §2
Data set [3] concerns cisplatin-resistant ovarian cancer cells (A2780Cis). The experiment in a line: Dose dependent study, trypan blue assay, A2780Cis. In kind it is cell-based. The conditions noted are these: at 0.39 μM, 72 hours treatment.
Data set [4] has as its system PC3 (prostate) cancer cells. The experiment in a line: MTT assay (in vitro cytotoxicity), PC3. In kind it is cell-based. The conditions noted are these: ratio to cisplatin. The procedure:
(§3) For all the assays, unless otherwise mentioned, stock solutions of the metal compounds were freshly prepared in DMSO (10 mM) and 1% DMSO in complete medium was used as a control.
(§4) The MTT [3-(4,5-dimethylthiazol-2-yl)-2,5-diphenyltetrazolium bromide] assay is based on the conversion of a yellow coloured MTT solution to purple formazan crystals by the active mitochondrial dehydrogenases of viable cells. Thus, the intensity of the produced purple colour is proportional to the number of viable cells. The cells were seeded in 96 well plates depending on cellular doubling time and were treated with solutions of the metal compounds (100 μM, 10 μm, 1 μM, 0.1 μM, 0.01 μM) after overnight incubation. The cells were further incubated for 48 h and the medium containing the test compounds was removed before addition of 100 μL MTT solution (5 mg/mL) in serum-free medium. After 4 h incubation in the dark at 37° C., the excess MTT solution was removed from the wells and 100 μL of DMSO was added to each well to solubilise the formed formazan crystals. The absorbance of formazan solution from each well was recorded using a Spectramax micro titre plate reader at 570 and 630 nm. […] For all the assays, stock solutions of gold compounds were prepared in DMSO (10 mM) and the final treatment concentrations (100 μM-0.01 μM) were made in complete growth medium.

A short description of data set [5]: MTT assay (in vitro cytotoxicity), HeK-293. The conditions noted are these: human, HEK-293 (normal) embryonic kidney cells, 48 h incubation, mean ± SD of three experiments. In kind it is cell-based. Here is the method:
as §3, §4

Data set [6] has as its system HT-1080 (bone, fibrosarcoma) cancer cells. The experiment in a line: MTT assay (in vitro cytotoxicity), HT-1080. As to conditions: ratio to cisplatin. In kind it is cell-based. The procedure:
as §3, §4

The subject of data set [7] is HeLa (cervical) cancer cells. The experiment in a line: MTT assay (in vitro cytotoxicity), HeLa. In kind it is cell-based. As to conditions: ratio to cisplatin. Here is the method:
as §3, §4
Background: Tetrazolium dyes change colour on reduction, which living cells bring about.

For data set [8], the system named is PC3 prostate cancer cells. The experiment in a line: Trypan blue assay, PC3. In kind it is cell-based.

As usually defined, the IC50 is the concentration that gives 50% inhibition. Take `N.N.[Cl][Pt][Cl]` [Cisplatin]: the half-maximal inhibitory concentration (IC50) in the data set with HT-29 colon cancer cells (Trypan blue, 72 hours treatment, read-out: In vitro cytotoxicity IC50, HT-29) is more than 25000 nM; in data set [1] (Trypan blue, 72 hours treatment, read-out: In vitro cytotoxicity IC50, A2780Cis), more than 25000 nM; in [2] (Trypan blue, 72 hours treatment, read-out: In vitro cytotoxicity IC50, A2780), 1400 ± 130 nM. Further, in the data set on HeLa xenografts (compared to solvent control), the tumour volume inhibition was 29%. For the same compound, the “effect on cell viability” value in data set [3] is listed as “no significant effect”.
On to `S=P(c1ccccc1)(c1ccccc1)c1cccc[c]1[Au][PH]12CN3CN(CN(C3)C1)C2` [Compound 1, [Au(PTA){κC-2-C6H4P(S)Ph2}]], for which, in [4], the “higher cytotoxicity than cisplatin against prostate cancer cells” value is recorded as 3.5 fold. In addition, in [5], the midpoint of inhibition, the IC50 at 48 h, lay at 380 ± 110 nM. Further, the “higher cytotoxicity than cisplatin against bone cancer cells” value in [6] was determined as 7.8 fold. Moreover, in the data set with HeLa xenografts, the “mouse death or body weight loss after treatment” value is reported as “no mouse death or body weight loss”. Besides, the “higher cytotoxicity than cisplatin towards cervical cancer cells” value in data set [7] was “approximately 27 fold”.
`S=P(c1ccccc1)(c1ccccc1)c1cccc[c]1[Au][P+](c1ccccc1)(c1ccccc1)c1ccccc1` [Compound 2, [Au(PPh3){κC-2-C6H4P(S)Ph2}]] gave an IC50 at 48 h in data set [5] of 5810 ± 350 nM.
Regarding `CC(=O)OC[C@H]1O[C@@H]([S-])[C@H](OC(C)=O)[C@@H](OC(C)=O)[C@@H]1OC(C)=O.CCP(CC)CC.[Au+]` [auranofin], the IC50 was determined as 510 nM with HT-29 colon cancer cells, 440 ± 50 nM in data set [8], 710 ± 60 nM in [1] and 80 ± 10 nM in data set [2].
Regarding `COc1cc([C@@H]2c3cc4c(cc3[C@@H](O[C@@H]3O[C@@H]5CO[C@@H](C)O[C@H]5[C@H](O)[C@H]3O)[C@H]3COC(=O)[C@H]23)OCO4)cc(OC)c1O` [etoposide], in data set [3], the “effect on cell viability” value is on record as “no significant effect”.
